In ChEMBL document CHEMBL4024727, “Synthesis and antimycobacterial screening of new thiazolyl-oxazole derivatives” (Eur J Med Chem, 2017):
In brackets after ≈: the same amount, converted by molar mass.

Experiments:
[1] = Selectivity index, ratio of GI50 for human PANC1 cells to MIC for Mycobacterium tuberculosis H37Ra ATCC 25177 dormant stage; assay type: toxicity; conditions: PANC-1 cells, read-out: Selectivity Index
[2] = (§1) Growth inhibition of human PANC1 cells by MTT assay; assay type: cell-based, PANC-1; conditions: PANC-1 cells
PANC-1 = test: as §1; assay type: cell-based; conditions: panc-1
[3] = Selectivity index, ratio of GI50 for human HeLa cells to MIC for Mycobacterium bovis BCG ATCC 35743 dormant stage; assay type: toxicity, cell-based; conditions: read-out: Selectivity Index
[4] = tested on: Mycobacterium tuberculosis; test: Growth inhibition of Mycobacterium bovis BCG ATCC 35743 at 10 ug/ml by nitrate reductase based two-fold dilution assay relative to control; assay type: functional; conditions: BCG str. ATCC 35743, read-out: GI
Staphylococcus aureus [5] = test: Growth inhibition of Staphylococcus aureus NCIM 2602 at 1 ug/ml measured after 12 hrs relative to control; assay type: functional; conditions: NCIM 2602, 12 h, read-out: GI
Escherichia coli [6] = test: Growth inhibition of Escherichia coli NCIM 2576 at 30 ug/ml measured after 8 hrs relative to control; assay type: functional; conditions: NCIM 2576, 8 h, read-out: GI
[7] = tested on: Mycobacterium tuberculosis; test: Growth inhibition of Mycobacterium bovis BCG ATCC 35743 at 30 ug/ml by nitrate reductase based two-fold dilution assay relative to control; assay type: functional; conditions: BCG str. ATCC 35743, read-out: GI
Pseudomonas fluorescens [8] = test: Antibacterial activity against Pseudomonas fluorescens NCIM 2059 measured after 8 hrs; assay type: functional; conditions: NCIM 2059, 8 h
[9] = Selectivity index, ratio of GI50 for human A549 cells to MIC for Mycobacterium tuberculosis H37Ra ATCC 25177 dormant stage; assay type: toxicity; conditions: read-out: Selectivity Index
Staphylococcus aureus [10] = test: Growth inhibition of Staphylococcus aureus NCIM 2602 at 10 ug/ml measured after 12 hrs relative to control; assay type: functional; conditions: NCIM 2602, 12 h, read-out: GI
Bacillus subtilis [11] = test: Growth inhibition of Bacillus subtilis NCIM 2162 at 1 ug/ml measured after 12 hrs relative to control; assay type: functional; conditions: NCIM 2162, 12 h, read-out: GI
[12] = tested on: Mycobacterium tuberculosis; test: Antitubercular activity against Mycobacterium tuberculosis H37Ra ATCC 25177 dormant stage by XTT dye based two-fold dilution method; assay type: functional
[13] = Selectivity index, ratio of GI50 for human PANC1 cells to MIC for Mycobacterium bovis BCG ATCC 35743 dormant stage; assay type: toxicity; conditions: PANC-1 cells, read-out: Selectivity Index
[14] = tested on: Mycobacterium tuberculosis; test: Growth inhibition of Mycobacterium tuberculosis H37Ra ATCC 25177 at 3 ug/ml by XTT dye based two-fold dilution method relative to control; assay type: functional; conditions: read-out: GI
A549 = test: (§2) Growth inhibition of human A549 cells by MTT assay; assay type: cell-based; conditions: a549
[15] = as §2; assay type: cell-based; conditions: A549 cells
Staphylococcus aureus [16] = test: Antibacterial activity against Staphylococcus aureus NCIM 2602 measured after 12 hrs; assay type: functional; conditions: NCIM 2602, 12 h
[17] = Selectivity index, ratio of GI50 for human A549 cells to MIC for Mycobacterium bovis BCG ATCC 35743 dormant stage; assay type: toxicity; conditions: read-out: Selectivity Index
Pseudomonas fluorescens [18] = test: Growth inhibition of Pseudomonas fluorescens NCIM 2059 at 30 ug/ml measured after 8 hrs relative to control; assay type: functional; conditions: NCIM 2059, 8 h, read-out: GI
HeLa = test: (§3) Growth inhibition of human HeLa cells by MTT assay; assay type: cell-based; conditions: hela
[19] = as §3; assay type: cell-based; conditions: HeLa cells
Staphylococcus aureus [20] = test: Growth inhibition of Staphylococcus aureus NCIM 2602 at 30 ug/ml measured after 12 hrs relative to control; assay type: functional; conditions: NCIM 2602, 12 h, read-out: GI
Pseudomonas fluorescens [21] = test: Growth inhibition of Pseudomonas fluorescens NCIM 2059 at 1 ug/ml measured after 8 hrs relative to control; assay type: functional; conditions: NCIM 2059, 8 h, read-out: GI
Escherichia coli [22] = test: Growth inhibition of Escherichia coli NCIM 2576 at 10 ug/ml measured after 8 hrs relative to control; assay type: functional; conditions: NCIM 2576, 8 h, read-out: GI
[23] = tested on: Mycobacterium tuberculosis; test: Antitubercular activity against Mycobacterium bovis BCG ATCC 35743 dormant stage by nitrate reductase based two-fold dilution assay; assay type: functional; conditions: BCG str. ATCC 35743
Bacillus subtilis [24] = test: Antibacterial activity against Bacillus subtilis NCIM 2162 measured after 12 hrs; assay type: functional; conditions: NCIM 2162, 12 h
Bacillus subtilis [25] = test: Growth inhibition of Bacillus subtilis NCIM 2162 at 30 ug/ml measured after 12 hrs relative to control; assay type: functional; conditions: NCIM 2162, 12 h, read-out: GI
[26] = Selectivity index, ratio of GI50 for human HeLa cells to MIC for Mycobacterium tuberculosis H37Ra ATCC 25177 dormant stage; assay type: toxicity, cell-based; conditions: read-out: Selectivity Index
[27] = tested on: Mycobacterium tuberculosis; test: Growth inhibition of Mycobacterium bovis BCG ATCC 35743 at 1 ug/ml by nitrate reductase based two-fold dilution assay relative to control; assay type: functional; conditions: BCG str. ATCC 35743, read-out: GI
Pseudomonas fluorescens [28] = test: Growth inhibition of Pseudomonas fluorescens NCIM 2059 at 10 ug/ml measured after 8 hrs relative to control; assay type: functional; conditions: NCIM 2059, 8 h, read-out: GI
Escherichia coli [29] = test: Growth inhibition of Escherichia coli NCIM 2576 at 1 ug/ml measured after 8 hrs relative to control; assay type: functional; conditions: NCIM 2576, 8 h, read-out: GI
[30] = tested on: Mycobacterium tuberculosis; test: Growth inhibition of Mycobacterium tuberculosis H37Ra ATCC 25177 at 10 ug/ml by XTT dye based two-fold dilution method relative to control; assay type: functional; conditions: read-out: GI
Bacillus subtilis [31] = test: Growth inhibition of Bacillus subtilis NCIM 2162 at 10 ug/ml measured after 12 hrs relative to control; assay type: functional; conditions: NCIM 2162, 12 h, read-out: GI
Escherichia coli [32] = test: Antibacterial activity against Escherichia coli NCIM 2576 measured after 8 hrs; assay type: functional; conditions: NCIM 2576, 8 h
[33] = tested on: Mycobacterium tuberculosis; test: Growth inhibition of Mycobacterium tuberculosis H37Ra ATCC 25177 at 30 ug/ml by XTT dye based two-fold dilution method relative to control; assay type: functional; conditions: read-out: GI

Compound | selectivity ratio [1] | GI50 [2] [µg/mL] | GI90 (PANC-1) [µg/mL] | selectivity ratio [3] | inhibition of growth at 10 µg/mL [4] [%] | inhibition of growth at 1 µg/mL (Staphylococcus aureus [5]) [%] | inhibition of growth at 30 µg/mL (Escherichia coli [6]) [%] | inhibition of growth at 30 µg/mL [7] [%] | MIC (Pseudomonas fluorescens [8]) [µM] | selectivity ratio [9] | inhibition of growth at 10 µg/mL (Staphylococcus aureus [10]) [%] | inhibition of growth at 1 µg/mL (Bacillus subtilis [11]) [%] | IC50 [12] [nM] | MIC90 [12] [µM] | selectivity ratio [13] | inhibition of growth at 3 µg/mL [14] [%] | GI90 (A549) [µg/mL] | GI50 [15] [µg/mL] | MIC (Staphylococcus aureus [16]) [µM] | selectivity ratio [17] | other results
Cc1nc(-c2ccc(F)cc2)oc1-c1csc(Cc2cccc(Cl)c2)n1 | 88 | > 250 | > 250 | 70 | 95 | 71.7 | 91.2 | 97 | 57.4 (≈ 22.1 µg/mL) | 88 | 82.4 | 79.7 | 230 | 7.38 (≈ 2.84 µg/mL) | 104 | 93 | > 250 | > 250 | 55.6 (≈ 21.4 µg/mL) | 104 | inhibition of growth at 30 µg/mL (Pseudomonas fluorescens [18]): 93.3%; GI90 (HeLa): > 250 µg/mL; GI50 [19]: 168 µg/mL (≈ 436 µM); inhibition of growth at 30 µg/mL (Staphylococcus aureus [20]): 95.6%; inhibition of growth at 1 µg/mL (Pseudomonas fluorescens [21]): 72.5%; inhibition of growth at 10 µg/mL (Escherichia coli [22]): 86.1%; IC50 [23]: 360 nM; MIC90 [23]: 6.26 µM (≈ 2.41 µg/mL); MIC (Bacillus subtilis [24]): 53.8 µM (≈ 20.7 µg/mL); inhibition of growth at 30 µg/mL (Bacillus subtilis [25]): 93.7%; selectivity ratio [26]: 59; inhibition of growth at 1 µg/mL [27]: 98%; inhibition of growth at 10 µg/mL (Pseudomonas fluorescens [28]): 85.7%; inhibition of growth at 1 µg/mL (Escherichia coli [29]): 70.5%; inhibition of growth at 10 µg/mL [30]: 92%; inhibition of growth at 10 µg/mL (Bacillus subtilis [31]): 85.4%; MIC (Escherichia coli [32]): 69.6 µM (≈ 26.8 µg/mL); inhibition of growth at 30 µg/mL [33]: 96%
Cc1nc(-c2ccc(F)cc2)oc1-c1csc(Cc2ccccc2)n1 | 115 | > 250 | > 250 | 58 | 96 | 93.9 | 94 | 97 | 19.1 (≈ 6.7 µg/mL) | 115 | 95.9 | 91.2 | 490 | 6.2 (≈ 2.17 µg/mL) | 97 | 95 | > 250 | > 250 | 6.85 (≈ 2.4 µg/mL) | 97 | inhibition of growth at 30 µg/mL (Pseudomonas fluorescens [18]): 99.6%; GI90 (HeLa): 248.63 µg/mL (≈ 710 µM); GI50 [19]: 148 µg/mL (≈ 423 µM); inhibition of growth at 30 µg/mL (Staphylococcus aureus [20]): 98.5%; inhibition of growth at 1 µg/mL (Pseudomonas fluorescens [21]): 87%; inhibition of growth at 10 µg/mL (Escherichia coli [22]): 90.3%; IC50 [23]: 540 nM; MIC90 [23]: 7.33 µM (≈ 2.57 µg/mL); MIC (Bacillus subtilis [24]): 5.99 µM (≈ 2.1 µg/mL); inhibition of growth at 30 µg/mL (Bacillus subtilis [25]): 99.9%; selectivity ratio [26]: 68; inhibition of growth at 1 µg/mL [27]: 97%; inhibition of growth at 10 µg/mL (Pseudomonas fluorescens [28]): 92.4%; inhibition of growth at 1 µg/mL (Escherichia coli [29]): 88.8%; inhibition of growth at 10 µg/mL [30]: 94%; inhibition of growth at 10 µg/mL (Bacillus subtilis [31]): 95.8%; MIC (Escherichia coli [32]): 20.6 µM (≈ 7.2 µg/mL); inhibition of growth at 30 µg/mL [33]: 99%
